# In patent publication US20030022872A1, “Vitamin d derivatives having substituents at the 2 alpha-position” (priority 2000, published 2003):
# Molecular target: T1, bovine thymus vitamin D receptor (VDR) (Bos taurus, UniProt Q28037)
# T1 sequence (Q28037 1-426): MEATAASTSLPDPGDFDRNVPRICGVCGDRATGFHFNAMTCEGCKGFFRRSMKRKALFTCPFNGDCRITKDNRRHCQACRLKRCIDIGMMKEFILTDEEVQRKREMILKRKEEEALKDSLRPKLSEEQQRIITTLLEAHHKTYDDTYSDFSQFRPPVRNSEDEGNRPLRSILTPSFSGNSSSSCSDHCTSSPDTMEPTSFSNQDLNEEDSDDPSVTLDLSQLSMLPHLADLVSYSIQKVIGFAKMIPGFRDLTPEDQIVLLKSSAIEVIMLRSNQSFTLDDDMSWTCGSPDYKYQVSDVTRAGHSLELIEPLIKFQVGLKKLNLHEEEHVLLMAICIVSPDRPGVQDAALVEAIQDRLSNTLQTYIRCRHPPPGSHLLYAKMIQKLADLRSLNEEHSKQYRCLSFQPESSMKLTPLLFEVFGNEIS
# Conditions: relative value with 1α,25-dihydroxyvitamin D3 taken as 100; ratio of concentrations inhibiting 50% of [3H]-1α,25-dihydroxyvitamin D3 binding (0.1 nM tracer, overnight at 4° C.)
# Description: Each of the resultant supernatants (500 μl) was mixed with ACS-II (9.5 ml) ([sequence], England) for radioactivity measurement.
# X: relative VDR binding property of the vitamin D derivative of the present invention
substance,measurement,value
"(5Z,7E)-(1S,2S,3R,20R)-2-(3-hydroxypropoxy)-9,10-seco-5,7,10(19)-cholestatriene-1,3,25-triol [Compound 16]",relative VDR binding property X=(y/x)×100,180
